Consider 28 compounds from patent US9199962B2, “Substituted azaheterocycles for the treatment of cancer” (Merck Patent GmbH, priority 2011, dated 2015).

Structures are written as SMILES. Read-outs that look alike come from different tables or passages of the source.

Test [1] concerns the target T1, GST-FAK (N-terminal GST fusion with truncated human FAK (376-1052 (end) amino acids)) (Homo sapiens, UniProt Q05397).
T1 construct: truncated human FAK (376-1052 (end) amino acids)
Kind of test: Biochemical enzyme assay for FAK activity (Caliper LC3000 mobility shift). The settings on record: 100 uM ATP, read-out: FAK IC50. A digest of the protocol: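 Inhibitor dose series in DMSO were incubated 90 min at 25 °C with truncated GST-tagged human FAK (0.067 ng/µl) and FITC-labelled peptide substrate (1 µM), with ATP at 100 µM and FERM peptide at 1 mM (pH 7.5 HEPES). After EDTA quench, phosphorylated and unphosphorylated peptides were resolved electrophoretically. Percent conversion was fitted for IC50.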

The target of test [2] is T2, focal adhesion kinase (FAK) autophosphorylation at tyrosine 397 in HT29 cells (Homo sapiens, UniProt Q05397).
T2 construct: endogenous in cells; host or cells: HT29
The experiment in a line: Cellular testing of FAK inhibitors: FAK autophosphorylation at tyrosine 397 in HT29 cells (Luminex-based assay). The settings on record: Table 2, phospho-Y397-FAK, 30 min serum-free, read-out: HT-29 IC50. In kind it is cell-based. The procedure: 2. Assay Principle for Celluar Testing of FAK Inhibitors
Cellular activity of focal adhesion kinase (FAK) is determined by the degree of FAK autophosphorylation at tyrosine 397 using a Luminex-based assay. HT29 cells are plated with 30,000 cells per well of a 96-well plate in 100 μl medium (90% DMEM/10% FCS). At the following day, test compounds are added in a serial dilution under serum-free conditions for 30 min. Then, cells were lysed with 90 μl lysis buffer (20 mM Tris/HCl pH 8.0, 150 mM NaCl, 1% NP40, 10% Glycerol, 1% Phosphatase-Inhibitor II, 20 mM […]-Glycerolphosphat, 0.1% Protease-Inhibitor Cocktail III, 0.01% Benzonase) and lysates were cleared by centrifugation through a 96-well filter plate (0.65 μm). Samples were incubated with Luminex-beads which were coupled with an anti-total FAK antibody overnight at 4° C. with under gentle agitation. For detection of phospho-Y397-FAK a phosphospecific antibody and a species specific PE-labeled secondary antibody are added. The amount of phospho-Y397-FAK is determined in a Luminex100 machine measuring 100 events per well within 60 seconds.
Counts from samples treated with a FAK reference inhibitor are subtracted as pharmacological blank. Counts from samples treated with test compounds are calculated as percent of control from solvent treated (0.3% DMSO) samples. IC50 values were determined using AssayExplorer software.

T2 sequence (Q05397 whole entry): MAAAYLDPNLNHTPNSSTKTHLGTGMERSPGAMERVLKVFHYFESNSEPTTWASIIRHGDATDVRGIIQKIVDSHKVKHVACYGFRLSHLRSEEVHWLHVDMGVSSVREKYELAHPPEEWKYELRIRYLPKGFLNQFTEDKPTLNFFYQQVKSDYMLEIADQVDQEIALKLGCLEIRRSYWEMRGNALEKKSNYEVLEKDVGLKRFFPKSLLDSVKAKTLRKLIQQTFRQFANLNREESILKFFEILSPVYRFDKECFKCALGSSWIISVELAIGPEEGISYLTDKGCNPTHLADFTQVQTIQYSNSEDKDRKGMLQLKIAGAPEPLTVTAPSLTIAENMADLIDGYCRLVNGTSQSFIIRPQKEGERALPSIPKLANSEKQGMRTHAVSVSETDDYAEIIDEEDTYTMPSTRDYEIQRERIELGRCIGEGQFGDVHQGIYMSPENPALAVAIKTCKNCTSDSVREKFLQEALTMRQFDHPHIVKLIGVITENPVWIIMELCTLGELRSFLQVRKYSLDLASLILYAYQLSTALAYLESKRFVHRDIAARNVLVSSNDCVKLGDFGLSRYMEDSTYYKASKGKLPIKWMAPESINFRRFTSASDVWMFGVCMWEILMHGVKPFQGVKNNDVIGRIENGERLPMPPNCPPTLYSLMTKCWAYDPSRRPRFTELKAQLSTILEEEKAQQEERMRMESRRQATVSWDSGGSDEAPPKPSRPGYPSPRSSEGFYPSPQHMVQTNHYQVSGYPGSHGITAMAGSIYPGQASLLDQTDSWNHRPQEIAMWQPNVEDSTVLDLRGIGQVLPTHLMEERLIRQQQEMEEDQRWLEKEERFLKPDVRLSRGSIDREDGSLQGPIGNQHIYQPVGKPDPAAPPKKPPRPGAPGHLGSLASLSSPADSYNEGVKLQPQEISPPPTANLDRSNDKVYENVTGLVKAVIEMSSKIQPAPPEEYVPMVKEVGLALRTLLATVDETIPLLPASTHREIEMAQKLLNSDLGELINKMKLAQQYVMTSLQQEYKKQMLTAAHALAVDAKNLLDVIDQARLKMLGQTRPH
T1 sequence (Q05397 376-1052): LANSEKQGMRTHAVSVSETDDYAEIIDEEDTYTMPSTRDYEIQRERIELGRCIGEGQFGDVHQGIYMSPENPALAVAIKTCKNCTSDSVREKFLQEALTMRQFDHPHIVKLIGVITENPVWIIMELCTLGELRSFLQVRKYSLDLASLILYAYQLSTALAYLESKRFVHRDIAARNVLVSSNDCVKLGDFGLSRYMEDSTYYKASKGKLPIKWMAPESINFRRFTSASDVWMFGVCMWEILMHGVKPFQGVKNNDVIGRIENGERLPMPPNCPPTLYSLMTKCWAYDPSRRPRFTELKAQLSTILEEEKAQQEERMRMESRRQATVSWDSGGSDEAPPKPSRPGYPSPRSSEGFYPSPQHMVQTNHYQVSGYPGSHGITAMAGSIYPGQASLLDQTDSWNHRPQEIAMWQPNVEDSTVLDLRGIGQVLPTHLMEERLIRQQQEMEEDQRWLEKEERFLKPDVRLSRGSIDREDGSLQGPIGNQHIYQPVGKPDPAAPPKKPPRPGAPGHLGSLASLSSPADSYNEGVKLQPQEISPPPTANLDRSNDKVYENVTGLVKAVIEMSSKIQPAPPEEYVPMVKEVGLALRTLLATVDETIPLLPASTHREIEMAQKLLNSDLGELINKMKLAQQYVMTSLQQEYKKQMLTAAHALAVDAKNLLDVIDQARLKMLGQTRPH

As for `NC(=O)CCNC(=O)c1cc(NCc2ccc(F)cc2F)nc(-c2cncc(C(F)(F)F)c2)n1` [Compound 41, 6-(2,4-Difluoro-benzylamino)-2-(5-trifluoromethyl-pyridin-3-yl)-pyrimidine-4-carboxylic acid (2-carbamoyl-ethyl)-amide], the IC50 (as a rule, the concentration that inhibits the measured activity by half) in test [1] (Table 2) is less than 100 nM; in test [2] it was 100 to 1000 nM.
Turning to `CCN(CC)C(=O)CCNC(=O)c1cc(NCc2ccc(F)cc2F)nc(-c2cncc(C(F)(F)F)c2)n1` [Compound 42, 6-(2,4-Difluoro-benzylamino)-2-(5-trifluoromethyl-pyridin-3-yl)-pyrimidine-4-carboxylic acid (2-diethylcarbamoyl-ethyl)-amide], the IC50 in test [1] (Table 2) is less than 100 nM; in test [2], 1000 to 10000 nM.
Take `O=C(NCCC(=O)N1CCOCC1)c1cc(NCc2ccc(F)cc2F)nc(-c2cncc(C(F)(F)F)c2)n1` [Compound 43, 6-(2,4-Difluoro-benzylamino)-2-(5-trifluoromethyl-pyridin-3-yl)-pyrimidine-4-carboxylic acid (3-morpholin-4-yl-3-oxo-propyl)-amide]: the IC50 in test [1] (Table 2) is less than 100 nM; in test [2], 1000 to 10000 nM.
`CN1CCN(C(=O)CCNC(=O)c2cc(NCc3ccc(F)cc3F)nc(-c3cncc(C(F)(F)F)c3)n2)CC1` [Compound 44, 6-(2,4-Difluoro-benzylamino)-2-(5-trifluoromethyl-pyridin-3-yl)-pyrimidine-4-carboxylic acid [3-(4-methyl-piperazin-1-yl)-3-oxo-propyl]-amide]: the results for the IC50 in test [1] (Table 2) and in test [2] were less than 100 nM and 1000 to 10000 nM, respectively.
Take `CCOC(=O)c1ccccc1Nc1ccnc(-c2cncc(C(F)(F)F)c2)n1` [Compound 250, 2-[2-(5-Trifluoromethyl-pyridin-3-yl)-pyrimidin-4-ylamino]-benzoic acid ethyl ester]: in test [1] (Table 5), the IC50 was greater than 10000 nM.
For the compound `CN(c1ncccc1CNc1nccc(-c2cncc(C(F)(F)F)c2)n1)S(C)(=O)=O` [Compound 251, N-Methyl-N-(3-{[4-(5-trifluoromethyl-pyridin-3-yl)-pyrimidin-2-ylamino]-methyl}-pyridin-2-yl)-methanesulfonamide], in test [1] (Table 5), the IC50 was 1000 to 10000 nM.
Take `Fc1ccc(CNc2cc(-c3cncc(C(F)(F)F)c3)ncn2)c(C(F)(F)F)c1` [Compound 252, (4-Fluoro-2-trifluoromethyl-benzyl)-[6-(5-trifluoromethyl-pyridin-3-yl)-pyrimidin-4-yl]-amine]: the IC50 in test [1] (Table 5) is 1000 to 10000 nM.
The same measure, in the same setting: the result for `Fc1cc(Cl)ccc1CNc1cc(-c2cncc(C(F)(F)F)c2)ncn1` [Compound 253, (4-Chloro-2-fluoro-benzyl)-[6-(5-trifluoromethyl-pyridin-3-yl)-pyrimidin-4-yl]-amine] reads 1000 to 10000 nM; that for `Fc1ccc(CNc2cc(-c3cncc(C(F)(F)F)c3)ncn2)c(F)c1` [Compound 254, (2,4-Difluoro-benzyl)-[6-(5-trifluoromethyl-pyridin-3-yl)-pyrimidin-4-yl]-amine], greater than 10000 nM; that for `CN(C)C(=O)c1ccccc1Nc1ccnc(-c2cncc(C(F)(F)F)c2)n1` [Compound 255, N,N-Dimethyl-2-[2-(5-trifluoromethyl-pyridin-3-yl)-pyrimidin-4-ylamino]-benzamide], greater than 10000 nM.
The same measure, in the same setting: the result for `CNC(=O)c1ccccc1Nc1ccnc(-c2cncc(C(F)(F)F)c2)n1` [Compound 256, N-Methyl-2-[2-(5-trifluoromethyl-pyridin-3-yl)-pyrimidin-4-ylamino]-benzamide] reads greater than 10000 nM.
The same measure, in the same setting: the result for `Cn1cc(-c2cc(NCc3ccc(F)cc3F)nc(-c3cncc(C(F)(F)F)c3)n2)cn1` [Compound 257, (2,4-Difluoro-benzyl)-[6-(1-methyl-1H-pyrazol-4-yl)-2-(5-trifluoromethyl-pyridin-3-yl)-pyrimidin-4-yl]-amine] reads 100 to 1000 nM.
With `Cn1cc(-c2cc(NCc3ccc(F)cc3F)nc(-c3cnn(C)c3)n2)cn1` [Compound 258, [2,6-Bis-(1-methyl-1H-pyrazol-4-yl)-pyrimidin-4-yl]-(2,4-difluoro-benzyl)-amine], in test [1] (Table 5), the IC50 lay in the range of 1000 to 10000 nM.
For the compound `CN1CCN(C(=O)c2cc(NCc3ccc(F)cc3F)nc(-c3cncc(C(F)(F)F)c3)n2)CC1` [Compound 259, [6-(2,4-Difluoro-benzylamino)-2-(5-trifluoromethyl-pyridin-3-yl)-pyrimidin-4-yl]-(4-methyl-piperazin-1-yl)-methanone], the half-maximal inhibitory concentration (IC50) in test [1] (Table 5) was 100 to 1000 nM.
Same read-out and setting: the result for `O=C(c1cc(NCc2ccc(F)cc2F)nc(-c2cncc(C(F)(F)F)c2)n1)N1CCOCC1` [Compound 260, [6-(2,4-Difluoro-benzylamino)-2-(5-trifluoromethyl-pyridin-3-yl)-pyrimidin-4-yl]-morpholin-4-yl-methanone] reads less than 100 nM.
Consider `O=C(Nc1cccnc1)c1cc(NCc2ccc(F)cc2F)nc(-c2cncc(C(F)(F)F)c2)n1` [Compound 261, 6-(2,4-Difluoro-benzylamino)-2-(5-trifluoromethyl-pyridin-3-yl)-pyrimidine-4-carboxylic acid pyridin-3-ylamide], for which the IC50 in test [1] (Table 5) fell in the range of 100 to 1000 nM.
`CNC(=O)C1(NC(=O)c2cc(NCc3ccc(F)cc3F)nc(-c3cncc(C(F)(F)F)c3)n2)CC1` [Compound 262, 6-(2,4-Difluoro-benzylamino)-2-(5-trifluoromethyl-pyridin-3-yl)-pyrimidine-4-carboxylic acid (1-methylcarbamoyl-cyclopropyl)-amide]: the IC50 in test [1] (Table 5) is 100 to 1000 nM.
In the case of `CC(NC(=O)c1cc(NCc2ccc(F)cc2F)nc(-c2cncc(C(F)(F)F)c2)n1)C(N)=O` (centres unmarked) [Compound 263, 6-(2,4-Difluoro-benzylamino)-2-(5-trifluoromethyl-pyridin-3-yl)-pyrimidine-4-carboxylic acid (1-carbamoyl-ethyl)-amide], the IC50 in test [1] (Table 5) is less than 100 nM.
As for `CN(C)C(=O)c1cc(NCc2ccc(F)cc2F)nc(-c2cncc(C(F)(F)F)c2)n1` [Compound 264, 6-(2,4-Difluoro-benzylamino)-2-(5-trifluoromethyl-pyridin-3-yl)-pyrimidine-4-carboxylic acid dimethylamide], the IC50 in test [1] (Table 5) was less than 100 nM.
The same measure, in the same setting: then `CN(c1ncccc1CNc1ccnc(-c2cncc(C(F)(F)F)c2)n1)S(C)(=O)=O` [Compound 265, N-Methyl-N-(3-{[2-(5-trifluoromethyl-pyridin-3-yl)-pyrimidin-4-ylamino]-methyl}-pyridin-2-yl)-methanesulfonamide], with 1000 to 10000 nM; and `Fc1ccc(CNc2cc(-c3cncc(C(F)(F)F)c3)nc(-c3cncc(C(F)(F)F)c3)n2)c(F)c1` [Compound 266, [2,6-Bis-(5-trifluoromethyl-pyridin-3-yl)-pyrimidin-4-yl]-(2,4-difluoro-benzyl)-amine], with 1000 to 10000 nM; and `CC(Nc1ccnc(-c2cncc(C(F)(F)F)c2)n1)c1ccccc1F` (centres unmarked) [Compound 267, [1-(2-Fluoro-phenyl)-ethyl]-[2-(5-trifluoromethyl-pyridin-3-yl)-pyrimidin-4-yl]-amine], with 100 to 1000 nM.
On the same count and under the same terms, then `CNC(=O)C(Nc1ccnc(-c2cncc(C(F)(F)F)c2)n1)c1ccccc1` (centres unmarked) [Compound 268, N-Methyl-2-phenyl-2-[2-(5-trifluoromethyl-pyridin-3-yl)-pyrimidin-4-ylamino]-acetamide], with 1000 to 10000 nM; and `CNC(=O)C(Nc1ccnc(-c2cncc(C(F)(F)F)c2)n1)c1ccc(O)cc1` (centres unmarked) [Compound 269, 2-(4-Hydroxy-phenyl)-N-methyl-2-[2-(5-trifluoromethyl-pyridin-3-yl)-pyrimidin-4-ylamino]-acetamide], with greater than 10000 nM; and `C[C@@H](Nc1ccnc(-c2cncc(C(F)(F)F)c2)n1)c1ccc(F)cc1` [Compound 270, [(R)-1-(4-Fluoro-phenyl)-ethyl]-[2-(5-trifluoromethyl-pyridin-3-yl)-pyrimidin-4-yl]-amine], with 100 to 1000 nM.
On to `OC[C@H](Nc1ccnc(-c2cncc(C(F)(F)F)c2)n1)c1ccccc1` [Compound 271, (R)-2-Phenyl-2-[2-(5-trifluoromethyl-pyridin-3-yl)-pyrimidin-4-ylamino]-ethanol], for which the IC50 in test [1] (Table 5) is 100 to 1000 nM.
For `O=C(O)c1cc(NCc2ccc(F)cc2F)nc(-c2cncc(C(F)(F)F)c2)n1` [Compound 272, 6-(2,4-Difluoro-benzylamino)-2-(5-trifluoromethyl-pyridin-3-yl)-pyrimidine-4-carboxylic acid], in test [1] (Table 5), the concentration for half-maximal inhibition (IC50) is 100 to 1000 nM.
Regarding `COC(=O)c1cc(NCc2ccc(F)cc2F)nc(-c2cncc(C(F)(F)F)c2)n1` [Compound 273, 6-(2,4-Difluoro-benzylamino)-2-(5-trifluoromethyl-pyridin-3-yl)-pyrimidine-4-carboxylic acid methyl ester], the IC50 in test [1] (Table 5) lay within 100 to 1000 nM.
